Data reported in patent US8318779B2, “Lysine related derivatives as HIV aspartyl protease inhibitors” (priority 2006, dated 2012).
Like-named read-outs stand apart in the source and are kept apart here.

Key:
[1] = test system: wild type laboratory HIV strain (WT IIIB-2-001); assay: Cellular anti-viral assay in HIV-infected MT4-LTR-EGFP cells (GFP reporter), wild type strain; type: cell-based
Method: The compound having structural formula (III) was tested in a cellular assay using the MT4-LTR-EGFP cells for anti-viral activity.
(§1) The cellular assay was performed according to the following procedure.
(§2) HIV- or mock-infected MT4-LTR-EGFP cells were incubated for three days in the presence of various concentrations of the compound according to the invention. As reference compounds APV, IDV, RTV, NFV, TPV and LPV were used. Upon infection, the viral tat protein activates the GFP reporter. At the end of the incubation period, the GFP signal was measured. In the virus control samples (in the absence of any inhibitor) the maximal fluorescent signal was obtained. The inhibitory activity of the compounds were monitored on the virus-infected cells and were expressed as EC50. These values represent the amount of the compound required to protect 50% of the cells from virus infection.

[2] = test system: clinically isolated HIV strain r13363 harboring several mutations; assay: Cellular anti-viral assay in HIV-infected MT4-LTR-EGFP cells (GFP reporter), clinically isolated mutant strain; type: cell-based
Method: Because of the increasing emergence of drug resistant HIV strains, the present compound was also tested for its potency against a clinically isolated HIV strain harboring several mutations. These mutations are associated with resistance to protease inhibitors and result in viruses that show various degrees of phenotypic cross-resistance to the currently commercially available drugs such as for instance saquinavir, ritonavir, nelfinavir, indinavir and amprenavir. The viral strain tested R13363 contains mutations as indicated below.
as §1, §2

[3] = Human immunodeficiency virus 1, IIIB, read-out: HIV-AVE-MT4LTREGFP-IIIB pEC50 (converted)
[4] = Human immunodeficiency virus 1, read-out: HIV-AVE-MT4LTREGFP-r13363 pEC50 (converted)

SMILES	EC50 [1, 3] [nM]	EC50 [2, 4] [nM]	further results
CC(C)(C)NC(=O)[C@@H]1CN(Cc2cccnc2)CCN1C[C@@H](O)C[C@@H](Cc1ccccc1)C(=O)N[C@H]1c2ccccc2C[C@H]1O [IDV, indinavir]	39.8	398	–
Cc1c(O)cccc1C(=O)N[C@@H](CSc1ccccc1)[C@H](O)CN1C[C@H]2CCCC[C@H]2C[C@H]1C(=O)NC(C)(C)C [NFV, nelfinavir]	63.1	1580	–
Cc1cccc(C)c1OCC(=O)N[C@@H](Cc1ccccc1)[C@@H](O)C[C@H](Cc1ccccc1)NC(=O)[C@H](C(C)C)N1CCCNC1=O [LPV, lopinavir]	12.6	631	–
COC(=O)N[C@H](C(=O)NCCCC[C@@H](CO)N(CC(C)C)S(=O)(=O)c1ccc(CN)cc1)C(c1ccccc1)c1ccccc1 [formula (III), (S)—(S)-(1-{5-[(4-Aminomethyl-benzenesulfonyl)-isobutyl-amino]-6-hydroxy-hexylcarbamoyl}-2,2-diphenyl-ethyl)-carbamic acid methyl ester]	–	–	EC50 ([1]; Human immunodeficiency virus 1, 72 h, wild type (IIIB), MT4-LTR-EGFP cells, three days incubation, read-out: pEC50—IIIB (converted)): 31.6 nM; anti-HIV activity against wild type laboratory HIV strain ([1]; MT4-LTR-EGFP cells, WT IIIB-2-001): potent anti-HIV activity; EC50 ([2]; Human immunodeficiency virus 1, 72 h, read-out: pEC50-r13363 (converted)): 31.6 nM
CC(C)CN(C[C@@H](O)[C@H](Cc1ccccc1)NC(=O)O[C@H]1CCOC1)S(=O)(=O)c1ccc(N)cc1 [APV, amprenavir]	50.1	10000	–
CCC[C@@]1(CCc2ccccc2)CC(O)=C([C@H](CC)c2cccc(NS(=O)(=O)c3ccc(C(F)(F)F)cn3)c2)C(=O)O1 [TPV]	–	–	HIV-AVE-MT4LTREGFP-IIIB pEC50 ([1]; reference compounds, wild type (IIIB), MT4-LTR-EGFP cells): 6.3 =; HIV-AVE-MT4LTREGFP-r13363 pEC50 ([2]; reference compounds, clinically isolated HIV strain r13363, MT4-LTR-EGFP cells): 6.3
CC(C)c1nc(CN(C)C(=O)N[C@H](C(=O)N[C@@H](Cc2ccccc2)C[C@H](O)[C@H](Cc2ccccc2)NC(=O)OCc2cncs2)C(C)C)cs1 [RTV, ritonavir]	63.1	10000	–
